Data taken from patent US9260504B2, “N- and C-terminal substituted antagonistic analogs of GH-RH” (University of Miami, priority 2008, dated 2016).

Legend:
Assay type in all cases: in vivo
[1] = test system: Human ovarian cancer SKOV3 cells; assay: SKOV3 ovarian cancer xenografts in nude mice; settings: 5 μg/day s.c.
Source text: Human ovarian cancer SKOV3 cells growing exponentially were implanted info five female nude mice by subcutaneous (s.c.) injection of 10^7 cells in both flanks. Tumors That resulted after approximately 4 weeks in donor animals were then aseptically dissected and mechanically minced. Three mm^3 pieces of tumor tissue were transplanted subcutaneously into experimental animals with a trocar needle. When tumors reached an appropriate size (approximately 50 mm^3), mice were randomly divided into […]. The first was the control group, the second group was treated with daily s.c. injections of 5 μg P-11313, the third group was treated with daily s.c. injections of 5 μg P-11604, the fourth group was treated with daily s.c. injections of 5 μg P-11610. Tumor volume (length×width×height×0.5236) was measured every week and mean tumor volumes of each group were compared by Student's t-test. The study lasted 49 days. One week after end of treatment, mice were killed under anesthesia, tumors were snap frozen and stored at −70° C.

[2] = test system: PC-3 human hormone-independent prostate cancer; assay: PC3 androgen-independent prostate cancer xenografts in nude mice (Example XIV)
Method: Male nude mice were implanted s.c. with 3 mm^3 pieces of PC-3 human hormone-independent prostate cancer tissue on both flanks. When tumors reached a volume of approximately 50 mm^3, the mice were divided into 8 experimental groups with 8 to 10 animals in each group and received single daily injections for 28 days as follows: 1. Control (vehicle solution); 2. P-11513 2 μg/day; 3. P-11602 2 μg/day; 4. P-11602 1 μg/day; 5. P-11604 2 μg/day; 6. P-11606 2 μg/day; 7. P-11610 2 μg/day; 8. P-11610 1 μg/day.
(§1) Tumor volumes were measured once a week. The experiment was ended on day 28 by sacrificing the mice under Isoflurane anesthesia. Resulting tumors were cleaned, weighed, and snap-frozen until further analyses. Statistical analyses of the measurement results were done by two-tailed t-test, p<0.05 being considered significant.

[3] = test system: HT human diffuse mixed B cell lymphoma cell line; assay: HT human diffuse mixed B cell lymphoma xenografts in nude mice; settings: 5 μg/day s.c.
Method: The aim of this study was to find out the tumor inhibitor effect of the latest GHRH antagonists (Peptide 11602, Peptide 11604, Peptide 11606, and Peptide 11610) at the dose of 5 μg/day on HT human diffuse mixed B cell lymphoma cell line. Female nude mice were xenografted subcutaneously with approximately 3 mm^3 pieces of HT malignant tumor tissue. When tumors reached the mean volume of approximately 120 mm^3, the animals were randomly assigned into different groups. Tumor volumes and body weight were measured once a week. At the end of the experiment mice were anesthetized and sacrificed. Tumors were carefully excised, weighed and were stored at −80° C. until further investigation. Organs and tumor samples were preserved in 10% formaldehyde.

[4] = test system: PC-3 human hormone-independent prostate cancer; assay: PC-3 human prostate cancer xenografts in nude mice, Experiment 4; settings: for Tumor growth after 28 days (%) / Tumor growth after 46 days (%) / Inhibition (%): 2 μg/day s.c.; for Inhibitory effect on PC-3 tumors compared with reference peptide JMR-132: 2 μg/day vs JMR-132 10 μg/day, after 46 days of treatment
Method: Male nude mice were implanted s.c. with 3 mm^3 pieces of PC-3 human hormone-independent prostate cancer tissue on both flanks. When tumors reached a volume of approximately 50 mm^3, the mice were divided into 12 experimental groups with 8 to 10 animals in each group and received single daily injections for 28 days as follows: 1. Control (vehicle solution); 2. JMR-132 (10 μg/day s.c.); 3. Peptide 11113 (2 μg/day s.c.); 4. Peptide 11119 (2 μg/day s.c.); 5. Peptide 11209 (2 μg/day s.c.); 6. Peptide 11313 (2 μg/day s.c.); 7. Peptide 11408 (2 μg/day s.c.); 8. Peptide 11435 (2 μg/day s.c.); 9. Peptide 11457 (2 μg/day s.c.); 10. Peptide 11459 (2 μg/day s.c.); 11. Peptide 11469 (2 μg/day s.c.); 12. Peptide 11491 (2 μg/day s.c.).
as §1
All experimental details of Experiment 4 are the same as for Experiment 3, with the following difference. When tumors reached a volume of approximately 50 mm^3, the mice were divided into 11 experimental groups with 8 to 10 animals in each group and received single daily injections for 46 days as follows: 1. Control (vehicle solution); 2. JMR-132 (10 μg/day s.c.); 3. Peptide 11123 (2 μg/day s.c.); 4. Peptide 11125 (2 μg/day s.c.); 5. Peptide 11213 (2 μg/day s.c.); 6. Peptide 11433 (2 μg/day s.c.); 7. Peptide 11473 (2 μg/day s.c.); 8. Peptide 11485 (2 μg/day s.c.); 9. Peptide 11497 (2 μg/day s.c.); 10. Peptide 11499 (2 μg/day s.c.); 11. Peptide 11521 (2 μg/day s.c.). Tumor volumes were measured once a week. The experiment was ended on day 46 by sacrificing the mice under Isoflurane anesthesia. Resulting tumors were cleaned, weighed, and snap-frozen until further analyses. Statistical analyses of the measurement results were done by two-tailed t-test, p<0.05 being considered significant.

[5] = test system: H460 human non-small cell lung cancer cell line; assay: H460 human non-small cell lung cancer xenografts in nude mice (Example XV); settings: 5 μg/day s.c.
Source text: The aim of this study was to find out the tumor inhibitor effect of the latest GHRH antagonists (Peptide 11423, Peptide 11602, Peptide 11604, Peptide 11606) on H460 human non-small cell lung cancer cell line. Female nude mice were xenografted subcutaneously with approximately 3 mm^3 pieces of H460 human non-small cell lung cancer malignant tumor tissue. When tumors reached the mean volume of approximately 90 mm^3, the animals was randomly assigned into different groups. Tumor volumes and body weight were measured once a week. At the end of the experiment mice were anesthetized and sacrificed. Tumors were carefully excised, weighed and were stored at −80° C. until further investigation. Organs and tumor samples were preserved in 10% formaldehyde.

PhAc^0-Tyr^1, D-Arg^2, Cpa^6, Ala^8, Har^9, (Phe(F)5)^10, His^11, Orn^12, Abu^15, His^20, Orn^21, Nle^27, D-Arg^28, Har^29-Ada^30]hGH-RH(1-29)NH2 [Peptide 11610]
TU growth (%) ([1]; day 0 (baseline)): 100%
TU growth (%) ([1]; day 7): 137.44%
TU inhibition (%) ([1]; day 7): 35.89%
TU growth (%) ([1]; day 14): 150.1%
TU inhibition (%) ([1]; day 14): 46.44%
TU growth (%) ([1]; day 21): 239.14%
TU inhibition (%) ([1]; day 21): 56.00%
TU growth (%) ([1]; day 28): 204.07%
TU inhibition (%) ([1]; day 28): 75.76%
TU growth (%) ([1]; day 35): 242.05%
TU inhibition (%) ([1]; day 35): 72.89%
TU growth (%) ([1]; day 42): 273.83%
TU inhibition (%) ([1]; day 42): 77.85%
TU growth (%) ([1]; day 49): 383.93%
TU inhibition (%) ([1]; day 49): 69.82%
TUMOR GROWTH (%) ([2]; 1 μg/day, day 0 (baseline)): 100%
TUMOR GROWTH (%) ([2]; 1 μg/day, day 7): 195.49%
Tumor inhibition (%) ([2]; 1 μg/day, day 7): 40.99%
TUMOR GROWTH (%) ([2]; 1 μg/day, day 14): 302.30%
Tumor inhibition (%) ([2]; 1 μg/day, day 14): 48.84%
TUMOR GROWTH (%) ([2]; 1 μg/day, day 21): 549.94%
Tumor inhibition (%) ([2]; 1 μg/day, day 21): 53.79%
TUMOR GROWTH (%) ([2]; 1 μg/day, day 28): 740.17%
Tumor inhibition (%) ([2]; 1 μg/day, day 28): 60.15%
TUMOR GROWTH (%) ([2]; 2 μg/day, day 0 (baseline)): 100%
TUMOR GROWTH (%) ([2]; 2 μg/day, day 7): 132.24%
Tumor inhibition (%) ([2]; 2 μg/day, day 7): 60.08%
TUMOR GROWTH (%) ([2]; 2 μg/day, day 14): 289.25%
Tumor inhibition (%) ([2]; 2 μg/day, day 14): 51.05%
TUMOR GROWTH (%) ([2]; 2 μg/day, day 21): 466.31%
Tumor inhibition (%) ([2]; 2 μg/day, day 21): 60.82%
TUMOR GROWTH (%) ([2]; 2 μg/day, day 28): 631.89%
Tumor inhibition (%) ([2]; 2 μg/day, day 28): 65.98%
TUMOR GROWTH (%) ([3]; day 1 (baseline)): 100%
Tumor inhibition (%) ([3]; day 1 (baseline)): 0%
Tumor volume (mm^3) ([3]; day 1 (baseline)): 90.42 mm^3
TUMOR GROWTH (%) ([3]; day 7): 183.36%
Tumor inhibition (%) ([3]; day 7): 40.01%
Tumor volume (mm^3) ([3]; day 7): 145.53 mm^3
TUMOR GROWTH (%) ([3]; day 14): 307.98%
Tumor inhibition (%) ([3]; day 14): 36.21%
Tumor volume (mm^3) ([3]; day 14): 194.57 mm^3
TUMOR GROWTH (%) ([3]; day 21): 361.18%
Tumor inhibition (%) ([3]; day 21): 53.78%
Tumor volume (mm^3) ([3]; day 21): 250.24 mm^3
TUMOR GROWTH (%) ([3]; day 28): 519.79%
Tumor inhibition (%) ([3]; day 28): 42.02%
Tumor volume (mm^3) ([3]; day 28): 428.99 mm^3

[(Ac-Amc)^0-Tyr^1, D-Arg^2, Cpa^6, Ala^8, Har^9, Tyr(Me)^10, His^11, Orn^12, Abu^15, His^20, Orn^21, Nle^27, D-Arg^28, Har^29-Ada^30]hGH-RH(1-29)NH2 [Peptide 11497]
Tumor growth after 28 days (%) [4]: 872%
Tumor growth after 46 days (%) [4]: 1658%
Inhibitory effect on PC-3 tumors compared with reference peptide JMR-132 [4]: had a more potent inhibitory effect than reference peptide JMR-132
Inhibition (%) ([4]; after 28 days): 36.25%
Inhibition (%) ([4]; after 46 days): 50.22%

[(Dca-Amc)^0-Tyr^1, D-Arg^2, Cpa^6, Ala^8, Har^9, Tyr(Me)^10, His^11, Orn^12, Orn^15, His^20, Orn^21, Nle^27, D-Arg^28, Har^29-Ada^30]hGH-RH(1-29)NH2 [Peptide 11521]
Tumor growth after 28 days (%) [4]: 877%
Tumor growth after 46 days (%) [4]: 2427%
Inhibition (%) ([4]; after 28 days): 35.86%
Inhibition (%) ([4]; after 46 days): 27.11%

[Dca^0-Tyr^1, D-Arg^2, Cpa^6, Ala^8, Har^9, Tyr(Me)^10, His^11, Orn^12, Abu^15, Har^20, Orn^21, Nle^27, D-Arg^28, Har^29]hGH-RH(1-29)NH2 [Peptide 11513]
TUMOR GROWTH (%) ([2]; 2 μg/day, day 0 (baseline)): 100%
TUMOR GROWTH (%) ([2]; 2 μg/day, day 7): 212.49%
Tumor inhibition (%) ([2]; 2 μg/day, day 7): 35.86%
TUMOR GROWTH (%) ([2]; 2 μg/day, day 14): 420.81%
Tumor inhibition (%) ([2]; 2 μg/day, day 14): 28.79%
TUMOR GROWTH (%) ([2]; 2 μg/day, day 21): 823.51%
Tumor inhibition (%) ([2]; 2 μg/day, day 21): 30.80%
TUMOR GROWTH (%) ([2]; 2 μg/day, day 28): 1420.09%
Tumor inhibition (%) ([2]; 2 μg/day, day 28): 23.54%

[Nac^0-Tyr^1, D-Arg^2, Cpa^6, Ala^8, Har^9, Tyr(Me)^10, His^11, Orn^12, Abu^15, His^20, Orn^21, Nle^27, D-Arg^28, Har^29-AE2A^30] hGH-RH(1-29)NH2 [Peptide 11433]
Tumor growth after 28 days (%) [4]: 956%
Tumor growth after 46 days (%) [4]: 1890%
Inhibition (%) ([4]; after 28 days): 30.15%
Inhibition (%) ([4]; after 46 days): 43.23%

[Oct^0-Tyr^1, D-Arg^2, Cpa^6, Ala^8, His^9, Tyr(Et)^10, His^11, Orn^12, Abu^15, His^20, Orn^21, Nle^27, D-Arg^28, Har^29-Ada^30]hGH-RH(1-29)NH2 [Peptide 11213]
Tumor growth after 28 days (%) [4]: 651%
Tumor growth after 46 days (%) [4]: 1144%
Inhibitory effect on PC-3 tumors compared with reference peptide JMR-132 [4]: had a more potent inhibitory effect than reference peptide JMR-132
Inhibition (%) ([4]; after 28 days): 52.41%
Inhibition (%) ([4]; after 46 days): 65.65%

[PhAc^0-Tyr^1, D-Arg^2, (Phe(F)5)^6, Ala^8, Har^9, Tyr(Me)^10, His^11, Orn^12, Abu^15, His^20, Orn^21, Nle^27, D-Arg^28, Har^29-Ada^30]hGH-RH(1-29)NH2 [Peptide 11499]
Tumor growth after 28 days (%) [4]: 782%
Tumor growth after 46 days (%) [4]: 2178%
Inhibition (%) ([4]; after 28 days): 42.86%
Inhibition (%) ([4]; after 46 days): 34.59%

[PhAc^0-Tyr^1, D-Arg^2, Cpa^6, Dip^8, Har^9, Tyr(Me)^10, His^11, Orn^12, Abu^15, His^20, Orn^21, Nle^27, D-Arg^28, Har^29-AE2A^30]hGH-RH(1-29)NH2 [Peptide 11423]
TUMOR GROWTH (%) ([5]; day 1 (baseline)): 100.00%
TUMOR GROWTH (%) ([5]; day 7): 412.37%
Tumor inhibition (%) ([5]; day 7): 22.17%
TUMOR GROWTH (%) ([5]; day 14): 761.10%
Tumor inhibition (%) ([5]; day 14): 44.95%
TUMOR GROWTH (%) ([5]; day 21): 1130.90%
Tumor inhibition (%) ([5]; day 21): 54.20%
TUMOR GROWTH (%) ([5]; day 28): 2687.38%
Tumor inhibition (%) ([5]; day 28): 34.45%
